Experimental data as given in the NIST ThermoML archive (doi:10.1021/je060271a).
Values joined by “and” are separate entries in the source; they are usually repeats but may differ in a detail not shown here. Equal values may be shown once. ± gives the expanded uncertainty stated by the source.

Conditions: Liquid, Vibrating tube method

CCCCCC(=O)OCC(COC(=O)CCCCC)(COC(=O)CCCCC)COC(=O)CCCCC [pentaerythritol tetrahexanoate]
Conditions | mass density
323.17 K, 28058 kPa | 990.9 ± 1.2 kg/m3
323.17 K, 28086 kPa | 991 ± 1.2 kg/m3
323.17 K, 28114 kPa | 991 ± 1.2 kg/m3
323.17 K, 28143 kPa | 991 ± 1.2 kg/m3
323.17 K, 28171 kPa | 991 ± 1.2 kg/m3
323.17 K, 28198 kPa | 991 ± 1.2 kg/m3
323.17 K, 28227 kPa | 991 ± 1.2 kg/m3
323.17 K, 28250 kPa | 991 ± 1.2 kg/m3
323.17 K, 28280 kPa | 991.1 ± 1.2 kg/m3
323.17 K, 32281 kPa | 993.5 ± 1.2 kg/m3
323.17 K, 32302 kPa | 993.5 ± 1.2 kg/m3
323.17 K, 32323 kPa | 993.5 ± 1.2 kg/m3
323.17 K, 32340 kPa | 993.5 ± 1.2 kg/m3
323.17 K, 32354 kPa | 993.5 ± 1.2 kg/m3
323.18 K, 15635 kPa | 983.3 ± 1.2 kg/m3
323.18 K, 15665 kPa | 983.3 ± 1.2 kg/m3
323.18 K, 15689 kPa | 983.4 ± 1.2 kg/m3
323.18 K, 15719 kPa | 983.4 ± 1.2 kg/m3
323.18 K, 15747 kPa | 983.4 ± 1.2 kg/m3
323.18 K, 15770 kPa | 983.3 ± 1.2 kg/m3
323.18 K, 15797 kPa | 983.4 ± 1.2 kg/m3
323.18 K, 15822 kPa | 983.4 ± 1.2 kg/m3
323.18 K, 16186 kPa | 983.7 ± 1.2 kg/m3
323.18 K, 16212 kPa | 983.6 ± 1.2 kg/m3
323.18 K, 16234 kPa | 983.7 ± 1.2 kg/m3
323.18 K, 16261 kPa | 983.7 ± 1.2 kg/m3
323.18 K, 16283 kPa | 983.8 ± 1.2 kg/m3
323.18 K, 25706 kPa | 989.7 ± 1.2 kg/m3
343.14 K, 219.9 kPa | 957.2 ± 1.2 kg/m3
343.14 K, 220 kPa | 957.3 ± 1.2 kg/m3
343.14 K, 220.3 kPa | 957.1 ± 1.2 kg/m3 and 957.2 ± 1.2 kg/m3
343.14 K, 223.6 kPa | 957.3 ± 1.2 kg/m3
343.14 K, 348.7 kPa | 957.3 ± 1.2 kg/m3
343.14 K, 348.9 kPa | 957.2 ± 1.2 kg/m3
343.14 K, 349 kPa | 957.3 ± 1.2 kg/m3
343.14 K, 349.6 kPa | 957.4 ± 1.2 kg/m3
343.14 K, 350.2 kPa | 957.3 ± 1.2 kg/m3
343.14 K, 350.4 kPa | 957.2 ± 1.2 kg/m3
343.14 K, 350.6 kPa | 957.3 ± 1.2 kg/m3
343.14 K, 351.1 kPa | 957.3 ± 1.2 kg/m3
343.14 K, 351.3 kPa | 957.3 ± 1.2 kg/m3
343.14 K, 387.3 kPa | 957.4 ± 1.2 kg/m3
343.14 K, 387.4 kPa | 957.2 ± 1.2 kg/m3
343.14 K, 388.3 kPa | 957.4 ± 1.2 kg/m3 and 957.5 ± 1.2 kg/m3
343.14 K, 388.5 kPa | 957.4 ± 1.2 kg/m3
343.14 K, 388.8 kPa | 957.5 ± 1.2 kg/m3
343.14 K, 389.7 kPa | 957.3 ± 1.2 kg/m3
343.14 K, 390.2 kPa | 957.5 ± 1.2 kg/m3
343.14 K, 754.9 kPa | 957.7 ± 1.2 kg/m3
343.14 K, 762.4 kPa | 957.6 ± 1.2 kg/m3
343.14 K, 769.9 kPa | 957.7 ± 1.2 kg/m3
343.14 K, 778.4 kPa | 957.6 ± 1.2 kg/m3
343.14 K, 925.3 kPa | 957.8 ± 1.2 kg/m3
343.14 K, 935.1 kPa | 957.8 ± 1.2 kg/m3
343.14 K, 947.2 kPa | 957.8 ± 1.2 kg/m3
343.14 K, 956.9 kPa | 957.8 ± 1.2 kg/m3
343.14 K, 1145.7 kPa | 958 ± 1.2 kg/m3
343.14 K, 1156.5 kPa | 958 ± 1.2 kg/m3
343.14 K, 1168 kPa | 958 ± 1.2 kg/m3
343.14 K, 1181.7 kPa | 958 ± 1.2 kg/m3
343.14 K, 1193 kPa | 958 ± 1.2 kg/m3
343.14 K, 1206.5 kPa | 958 ± 1.2 kg/m3
343.14 K, 1218.3 kPa | 958 ± 1.2 kg/m3
343.14 K, 1230.1 kPa | 958.1 ± 1.2 kg/m3
343.14 K, 1242.1 kPa | 958.1 ± 1.2 kg/m3
343.14 K, 1256.4 kPa | 958.1 ± 1.2 kg/m3
343.14 K, 1268.3 kPa | 958 ± 1.2 kg/m3
343.14 K, 2111 kPa | 958.7 ± 1.2 kg/m3
343.14 K, 2133.5 kPa | 958.7 ± 1.2 kg/m3
343.14 K, 2152.4 kPa | 958.7 ± 1.2 kg/m3
343.14 K, 2172.4 kPa | 958.8 ± 1.2 kg/m3
343.14 K, 2192.8 kPa | 958.8 ± 1.2 kg/m3
343.14 K, 2212.6 kPa | 958.8 ± 1.2 kg/m3
343.14 K, 2232.6 kPa | 958.8 ± 1.2 kg/m3
343.14 K, 2256.5 kPa | 958.8 ± 1.2 kg/m3
343.14 K, 2276.6 kPa | 958.9 ± 1.2 kg/m3
343.14 K, 2301.1 kPa | 958.8 ± 1.2 kg/m3
343.14 K, 2322.3 kPa | 958.9 ± 1.2 kg/m3
343.14 K, 2342.9 kPa | 958.8 ± 1.2 kg/m3
343.14 K, 2498.5 kPa | 959.1 ± 1.2 kg/m3
343.14 K, 2520.2 kPa | 958.9 ± 1.2 kg/m3
343.14 K, 2541.5 kPa | 959.1 ± 1.2 kg/m3
343.14 K, 2567.9 kPa | 959 ± 1.2 kg/m3
343.14 K, 2590.1 kPa | 959.1 ± 1.2 kg/m3
343.14 K, 2612.1 kPa | 959 ± 1.2 kg/m3
343.14 K, 2638.5 kPa | 959.1 ± 1.2 kg/m3
343.14 K, 2660.7 kPa | 959.1 ± 1.2 kg/m3
343.14 K, 2683.4 kPa | 959.2 ± 1.2 kg/m3
343.14 K, 6196.6 kPa | 961.7 ± 1.2 kg/m3
343.14 K, 6236.7 kPa | 961.9 ± 1.2 kg/m3
343.14 K, 6269.8 kPa | 961.8 ± 1.2 kg/m3
343.14 K, 6638.6 kPa | 962.2 ± 1.2 kg/m3
343.14 K, 6667.6 kPa | 962.1 ± 1.2 kg/m3
343.14 K, 6695.6 kPa | 962.2 ± 1.2 kg/m3
343.14 K, 6726.9 kPa | 962.2 ± 1.2 kg/m3
343.14 K, 7550.4 kPa | 962.9 ± 1.2 kg/m3
343.14 K, 7576.5 kPa | 962.8 ± 1.2 kg/m3
343.14 K, 7602.9 kPa | 962.8 ± 1.2 kg/m3
343.14 K, 7633.5 kPa | 962.9 ± 1.2 kg/m3
343.14 K, 7659 kPa | 962.9 ± 1.2 kg/m3
343.14 K, 7685.3 kPa | 963 ± 1.2 kg/m3
343.14 K, 7716.2 kPa | 962.9 ± 1.2 kg/m3
343.14 K, 7742 kPa | 963 ± 1.2 kg/m3
343.14 K, 8529.9 kPa | 963.5 ± 1.2 kg/m3
343.14 K, 8557.5 kPa | 963.5 ± 1.2 kg/m3
343.14 K, 8590 kPa | 963.6 ± 1.2 kg/m3
343.14 K, 8617.8 kPa | 963.7 ± 1.2 kg/m3
343.14 K, 8680.1 kPa | 963.6 ± 1.2 kg/m3
343.14 K, 8708.7 kPa | 963.8 ± 1.2 kg/m3
343.14 K, 11319 kPa | 965.5 ± 1.2 kg/m3
343.14 K, 11356 kPa | 965.5 ± 1.2 kg/m3
343.14 K, 11392 kPa | 965.6 ± 1.2 kg/m3
343.14 K, 11435 kPa | 965.6 ± 1.2 kg/m3
343.14 K, 11471 kPa | 965.7 ± 1.2 kg/m3
343.14 K, 11507 kPa | 965.8 ± 1.2 kg/m3
343.14 K, 11550 kPa | 965.7 ± 1.2 kg/m3
343.14 K, 11586 kPa | 965.8 ± 1.2 kg/m3
343.14 K, 11622 kPa | 965.8 ± 1.2 kg/m3
343.14 K, 11664 kPa | 966 ± 1.2 kg/m3
343.14 K, 12063 kPa | 966.2 ± 1.2 kg/m3
343.14 K, 12100 kPa | 966.1 ± 1.2 kg/m3
343.14 K, 12131 kPa | 966.2 ± 1.2 kg/m3
343.14 K, 12213 kPa | 966.1 ± 1.2 kg/m3
343.14 K, 17659 kPa | 969.9 ± 1.2 kg/m3
343.14 K, 18549 kPa | 970.7 ± 1.2 kg/m3
343.14 K, 18578 kPa | 970.7 ± 1.2 kg/m3
343.14 K, 18602 kPa | 970.7 ± 1.2 kg/m3
343.14 K, 18626 kPa | 970.7 ± 1.2 kg/m3
343.14 K, 18893 kPa | 970.8 ± 1.2 kg/m3
343.14 K, 20126 kPa | 971.6 ± 1.2 kg/m3 and 971.7 ± 1.2 kg/m3
343.14 K, 20127 kPa | 971.7 ± 1.2 kg/m3
343.14 K, 20128 kPa | 971.7 ± 1.2 kg/m3
343.14 K, 25755 kPa | 975.4 ± 1.2 kg/m3
343.14 K, 25795 kPa | 975.4 ± 1.2 kg/m3
343.14 K, 25825 kPa | 975.4 ± 1.2 kg/m3
343.14 K, 25856 kPa | 975.4 ± 1.2 kg/m3
343.14 K, 25888 kPa | 975.5 ± 1.2 kg/m3
343.14 K, 25925 kPa | 975.6 ± 1.2 kg/m3
343.14 K, 25957 kPa | 975.5 ± 1.2 kg/m3
343.14 K, 25988 kPa | 975.6 ± 1.2 kg/m3
343.14 K, 26018 kPa | 975.6 ± 1.2 kg/m3
343.14 K, 26052 kPa | 975.6 ± 1.2 kg/m3
343.15 K, 203.3 kPa | 957.3 ± 1.2 kg/m3
343.15 K, 203.6 kPa | 957.2 ± 1.2 kg/m3 and 957.3 ± 1.2 kg/m3 and 957.1 ± 1.2 kg/m3
